In article PMC11468049 (Fluids and Barriers of the CNS, 2024):

Key:
[1] = tested on: iPSC-derived BMEC-like cells; assay: in vitro Aβ transcytosis assay (basolateral-to-apical, Transwell); type: cell-based, human; conditions: 3 h, 37 °C; for effect of recombinant APOE isoform on Aβ42 trafficking: 500 nM rhAPOE plus 500 nM Aβ42 basolateral
Procedure: (§1) Transwells (Corning, 3460) pre-coated with 200 uL 0.5 mg/mL collagen IV (Sigma, C5533) overnight at 37 °C. iPSC-derived BMEC-like cells were seeded at 1 million/cm^2 on Transwells (Corning, 3460) in hECSR media. […] This buffer helps to maintain Aβ in monomeric and denatured state. Stocks were then diluted to 500 nM in hECSR medium immediately before experiments. For experiments conditions when recombinant APOE is added, recombinant APOE2 (Peprotech, 350 − 12), APOE3 (Peprotech, 350-02) or APOE4 (Peprotech, 350-04) were added at concentration of 500 nM. In transcytosis assay, 1.5 mL of hECSR medium with Aβ and/or recombinant APOE was added to the basolateral chamber. 0.5 mL of hECSR media that is Aβ-free and APOE-free was added to the apical chamber. The Transwells were then incubated at 37 °C on a 300 rpm orbital shaker for 3 h. Media samples from the apical chamber were taken and analyzed.

[2] = tested on: iPSC-derived pericyte-like cells; assay: Aβ42-Hylite488 internalization by pericyte-like cells (confocal microscopy); type: cell-based, human; conditions: confocal microscopy (Fig. 5D)
Description: Data are reported as mean ± standard deviation. […] The last column contains the merged images. Scale bars: 10 μm. […] (n = 4 wells of biological replicates per condition) **: p < 0.01 in Student’s t-test. Data are reported as mean ± standard deviation. […] Confocal microscopy images were taken at 5 μm z-slice intervals. All z-slices with Hoechst 33342 nuclear staining were aggregated for maximum intensity projection analysis. Scale bars: 10 μm.

[3] = target: T1, LRP1 (Homo sapiens, UniProt Q07954); assay: Aβ42-Hylite488 internalization by pericyte-like cells with LRP1 inhibition by RAP; type: cell-based; conditions: APOE3 pericyte-like cells; with or without RAP; confocal MFI; n = 4 (Fig. 5D, E)
T1 construct: endogenous in cells; host or cells: APOE3 human iPSC-derived BMEC-like cells
Description: Patients with AD commonly have amyloid deposits associated with their brain vasculature, contributing to a pathological condition known as cerebral amyloid angiopathy (CAA). Recently, a role of pericytes in CAA has been reported. We quantified deposition of Aβ42, the Aβ isoform more prone to aggregation, for pericyte-like cells expressing different APOE isoforms. […] The pericyte-like cells were then singularized, washed and fixed, but not permeabilized, for cell surface immunolabeling with an anti-Aβ antibody. […] In the same way, we then examined the impact of APOE genotype on pericyte-like cell internalization of Aβ42.
Pericyte-like cells were then singularized, washed and labeled with anti-Aβ-FITC antibody for flow cytometry quantification of cell surface-associated Aβ42. […] FSC: forward scatter. Histogram is normalized to mode. […] Data are reported as mean ± standard deviation. (D) Representative confocal microscopy images showing accumulation of intracellular Aβ42-Hylite488 with or without LRP1 inhibition by RAP in APOE3 pericyte-like cells. […] (E) Quantification of mean fluorescence intensity (MFI) of Aβ42-Hylite488 accumulated inside APOE3 pericyte-like cells by confocal microscopy. […] (G) Quantification of mean fluorescence intensity (MFI) in maximum intensity projection confocal microscopy images of Aβ42-Hylite488 accumulated inside iPSC-derived pericytes by confocal microscopy. […]

[4] = target: T1, LRP1; assay: in vitro Aβ transcytosis assay with LRP1 inhibition by RAP; type: cell-based; conditions: APOE3 iPSC-derived BMEC-like cells on Transwell; with and without RAP; 3 h; apical Aβ40 by ELISA; n = 8 wells (Fig. 2D)
Procedure: as §1
(Fig. 2A). […] (Fig. 2E).

[5] = APOE KO BMEC-like cells on Transwell, apical ELISA, vs no APOE control, n = 12 (Fig. 3D)

T1 sequence (Q07954 20-4544): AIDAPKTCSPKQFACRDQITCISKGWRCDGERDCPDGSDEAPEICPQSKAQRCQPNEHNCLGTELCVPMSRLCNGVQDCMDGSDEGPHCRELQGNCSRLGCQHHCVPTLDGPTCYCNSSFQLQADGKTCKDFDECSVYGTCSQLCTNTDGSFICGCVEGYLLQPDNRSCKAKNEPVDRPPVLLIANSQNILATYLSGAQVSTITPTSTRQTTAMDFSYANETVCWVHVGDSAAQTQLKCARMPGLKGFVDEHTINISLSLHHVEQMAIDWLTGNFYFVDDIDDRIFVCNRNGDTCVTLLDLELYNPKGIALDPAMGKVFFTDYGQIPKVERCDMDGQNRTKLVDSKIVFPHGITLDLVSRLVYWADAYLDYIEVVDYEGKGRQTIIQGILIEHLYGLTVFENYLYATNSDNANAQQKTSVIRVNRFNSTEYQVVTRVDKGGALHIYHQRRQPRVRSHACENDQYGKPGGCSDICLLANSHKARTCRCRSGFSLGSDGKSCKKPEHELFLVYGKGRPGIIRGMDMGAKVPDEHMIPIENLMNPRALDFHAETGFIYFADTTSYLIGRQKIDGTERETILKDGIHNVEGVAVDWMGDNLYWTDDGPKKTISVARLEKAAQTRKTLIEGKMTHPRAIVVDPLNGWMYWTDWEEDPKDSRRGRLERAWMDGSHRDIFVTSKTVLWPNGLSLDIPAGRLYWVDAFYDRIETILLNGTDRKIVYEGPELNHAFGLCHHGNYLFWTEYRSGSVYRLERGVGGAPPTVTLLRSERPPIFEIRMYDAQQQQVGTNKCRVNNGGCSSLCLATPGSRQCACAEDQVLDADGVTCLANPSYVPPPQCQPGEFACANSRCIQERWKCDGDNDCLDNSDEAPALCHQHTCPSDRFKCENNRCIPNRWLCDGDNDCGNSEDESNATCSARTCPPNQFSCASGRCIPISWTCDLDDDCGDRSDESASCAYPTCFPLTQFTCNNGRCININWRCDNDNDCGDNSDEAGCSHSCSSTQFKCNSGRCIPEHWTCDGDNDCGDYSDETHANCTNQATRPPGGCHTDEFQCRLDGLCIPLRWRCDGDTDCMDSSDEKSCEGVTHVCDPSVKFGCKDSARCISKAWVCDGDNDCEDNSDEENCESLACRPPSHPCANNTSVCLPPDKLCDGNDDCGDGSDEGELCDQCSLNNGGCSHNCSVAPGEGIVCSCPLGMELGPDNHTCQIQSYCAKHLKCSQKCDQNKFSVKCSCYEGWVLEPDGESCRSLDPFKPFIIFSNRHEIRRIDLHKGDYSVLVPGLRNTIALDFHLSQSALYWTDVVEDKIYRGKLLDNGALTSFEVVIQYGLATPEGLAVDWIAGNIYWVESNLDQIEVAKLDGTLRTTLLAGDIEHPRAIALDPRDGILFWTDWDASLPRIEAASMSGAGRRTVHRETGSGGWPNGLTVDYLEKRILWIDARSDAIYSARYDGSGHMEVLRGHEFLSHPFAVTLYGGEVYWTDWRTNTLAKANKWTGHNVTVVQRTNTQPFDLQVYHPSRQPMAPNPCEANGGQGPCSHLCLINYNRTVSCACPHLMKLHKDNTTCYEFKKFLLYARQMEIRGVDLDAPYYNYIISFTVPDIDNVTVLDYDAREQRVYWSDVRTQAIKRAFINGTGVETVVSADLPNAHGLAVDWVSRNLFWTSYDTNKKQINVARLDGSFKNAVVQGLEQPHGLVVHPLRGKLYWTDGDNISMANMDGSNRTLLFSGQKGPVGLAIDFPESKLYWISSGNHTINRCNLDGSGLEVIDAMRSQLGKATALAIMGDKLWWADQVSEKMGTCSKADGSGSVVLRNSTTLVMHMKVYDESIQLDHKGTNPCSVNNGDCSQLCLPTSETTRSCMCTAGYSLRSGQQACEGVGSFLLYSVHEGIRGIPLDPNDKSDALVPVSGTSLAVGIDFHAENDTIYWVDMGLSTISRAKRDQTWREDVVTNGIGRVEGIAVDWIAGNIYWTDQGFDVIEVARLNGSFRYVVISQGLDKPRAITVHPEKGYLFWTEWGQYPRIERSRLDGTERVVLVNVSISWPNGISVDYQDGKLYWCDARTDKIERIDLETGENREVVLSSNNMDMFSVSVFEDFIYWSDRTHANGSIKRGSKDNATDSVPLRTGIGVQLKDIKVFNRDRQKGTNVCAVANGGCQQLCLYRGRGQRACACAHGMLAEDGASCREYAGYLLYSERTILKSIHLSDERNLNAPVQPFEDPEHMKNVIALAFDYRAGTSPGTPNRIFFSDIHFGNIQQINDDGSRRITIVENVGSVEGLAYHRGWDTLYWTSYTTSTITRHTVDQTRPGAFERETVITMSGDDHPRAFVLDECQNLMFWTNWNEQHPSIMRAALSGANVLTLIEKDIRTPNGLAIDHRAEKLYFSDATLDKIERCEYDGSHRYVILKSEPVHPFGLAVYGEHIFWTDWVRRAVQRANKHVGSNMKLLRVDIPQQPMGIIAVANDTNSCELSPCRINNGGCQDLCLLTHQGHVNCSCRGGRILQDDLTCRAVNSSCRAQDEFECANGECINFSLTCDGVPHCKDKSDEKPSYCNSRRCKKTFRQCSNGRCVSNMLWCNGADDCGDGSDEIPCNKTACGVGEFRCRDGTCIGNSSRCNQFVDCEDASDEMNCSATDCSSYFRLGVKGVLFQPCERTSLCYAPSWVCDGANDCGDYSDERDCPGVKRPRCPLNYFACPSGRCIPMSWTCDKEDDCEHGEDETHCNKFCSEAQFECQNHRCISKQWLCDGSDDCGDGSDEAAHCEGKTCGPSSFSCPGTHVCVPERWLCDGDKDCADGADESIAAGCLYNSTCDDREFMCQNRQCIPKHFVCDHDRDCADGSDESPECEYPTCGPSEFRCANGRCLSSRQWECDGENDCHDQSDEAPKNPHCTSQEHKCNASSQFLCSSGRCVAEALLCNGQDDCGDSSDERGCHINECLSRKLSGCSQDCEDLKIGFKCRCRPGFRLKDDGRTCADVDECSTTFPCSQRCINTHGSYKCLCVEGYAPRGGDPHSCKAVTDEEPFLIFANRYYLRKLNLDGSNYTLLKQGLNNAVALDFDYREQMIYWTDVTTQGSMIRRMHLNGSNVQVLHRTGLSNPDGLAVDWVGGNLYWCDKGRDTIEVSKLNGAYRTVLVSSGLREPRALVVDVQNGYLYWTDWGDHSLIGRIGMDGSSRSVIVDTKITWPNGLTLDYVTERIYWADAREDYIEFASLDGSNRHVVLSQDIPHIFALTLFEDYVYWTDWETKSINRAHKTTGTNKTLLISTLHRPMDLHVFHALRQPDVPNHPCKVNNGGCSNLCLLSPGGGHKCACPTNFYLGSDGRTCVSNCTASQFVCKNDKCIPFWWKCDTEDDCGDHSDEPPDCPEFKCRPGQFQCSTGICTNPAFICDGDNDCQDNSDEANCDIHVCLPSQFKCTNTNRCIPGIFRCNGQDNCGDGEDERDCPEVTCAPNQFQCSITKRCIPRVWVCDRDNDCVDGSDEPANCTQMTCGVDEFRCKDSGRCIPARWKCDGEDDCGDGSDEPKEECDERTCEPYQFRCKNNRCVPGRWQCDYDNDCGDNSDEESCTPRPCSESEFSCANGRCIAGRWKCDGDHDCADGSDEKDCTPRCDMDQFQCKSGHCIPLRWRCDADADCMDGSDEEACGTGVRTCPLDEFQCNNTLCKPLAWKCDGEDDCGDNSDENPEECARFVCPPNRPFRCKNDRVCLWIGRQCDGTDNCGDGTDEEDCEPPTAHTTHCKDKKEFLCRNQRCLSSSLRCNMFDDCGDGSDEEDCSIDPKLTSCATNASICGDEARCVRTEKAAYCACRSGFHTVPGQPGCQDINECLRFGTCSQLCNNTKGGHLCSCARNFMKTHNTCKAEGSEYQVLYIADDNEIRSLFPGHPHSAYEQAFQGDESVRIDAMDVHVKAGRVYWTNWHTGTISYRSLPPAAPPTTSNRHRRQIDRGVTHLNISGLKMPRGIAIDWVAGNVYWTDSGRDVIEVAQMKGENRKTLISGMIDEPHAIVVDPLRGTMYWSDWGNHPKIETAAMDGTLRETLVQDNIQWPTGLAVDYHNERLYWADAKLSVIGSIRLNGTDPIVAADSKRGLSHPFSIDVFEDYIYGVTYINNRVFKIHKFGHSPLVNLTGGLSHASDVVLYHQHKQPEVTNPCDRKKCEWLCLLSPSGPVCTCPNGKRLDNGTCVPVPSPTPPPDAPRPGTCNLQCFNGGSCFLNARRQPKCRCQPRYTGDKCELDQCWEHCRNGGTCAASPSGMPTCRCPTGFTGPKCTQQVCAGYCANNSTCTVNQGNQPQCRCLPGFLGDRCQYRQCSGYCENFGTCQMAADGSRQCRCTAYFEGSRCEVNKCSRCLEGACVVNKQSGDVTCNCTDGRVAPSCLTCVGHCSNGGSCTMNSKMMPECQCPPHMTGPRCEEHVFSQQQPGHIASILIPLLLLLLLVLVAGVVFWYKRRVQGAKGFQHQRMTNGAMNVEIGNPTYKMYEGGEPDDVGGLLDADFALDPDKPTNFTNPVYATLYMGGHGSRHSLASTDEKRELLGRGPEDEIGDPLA

rhAPOE4: recombinant human APOE4 (Peprotech, 350-04)
effect of recombinant APOE isoform on Aβ42 trafficking [1, 5]: does not provide any increase in Aβ40 or Aβ42 clearance

Aβ42-HyLite488: fluorescently labeled Aβ42
internalization by APOE3 pericyte-like cells [2]: internalized fluorescently labeled Aβ42-HyLite488

rhAPOE2: recombinant human APOE2 (Peprotech, 350 − 12)
effect of recombinant APOE isoform on Aβ42 trafficking [1, 5]: significantly increased the trafficking of Aβ42

rhAPOE3: recombinant human APOE3 (Peprotech, 350-02)
effect on basolateral-to-apical Aβ40 transcytosis ([1]; APOE3 iPSC-derived BMEC-like cells on Transwell, Aβ40 dosed basolateral with or without rhAPOE3, apical Aβ40 by ELISA, n = 8 wells (Fig. 2D)): facilitated Aβ40 transcytosis | effect of recombinant APOE isoform on Aβ40 trafficking ([1]; APOE KO BMEC-like cells on Transwell, 500 nM rhAPOE plus 500 nM Aβ40 basolateral, apical ELISA, vs no APOE control, n = 12 (Fig. 3D)): significantly increased the trafficking of Aβ40

RAP: LRP1 inhibitor; competes with APOE for LRP1 binding
effect of LRP1 inhibition on Aβ42-Hylite488 internalization [3]: internalization was diminished | effect of LRP1 inhibition on basolateral-to-apical Aβ40 transcytosis [4]: reduced but did not completely inhibit Aβ transcytosis
